Laboratory results as given in patent US20100041089A1, “IMPROVED METHOD FOR DETECTING CHEMICAL […]” (priority 2006, published 2010).

Test system: yeast genes (expressed mRNA)
Experiment: DNA chip measurement of expressed mRNA of yeast genes after culture with a toxic chemical substance
Format: cell-based, Saccharomyces cerevisiae S288C
In short: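 Expression is given as treated/untreated fluorescence ratio on a whole-genome yeast DNA chip, a ratio of two or more being significant. Log-phase S288C cultures in YPD at 25 °C received the chemical for 2 h at a dose that slows growth without killing. mRNA was reverse-transcribed with Cy3- or Cy5-dUTP.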

## C=CC=O [(14), Acrolein]
Yeast gene YGL053W, cultured two hours with substance
  The level of expressed mRNA in the presence of chemical substance/The level of expressed mRNA in the absence of chemical substance: 1.1
Yeast gene YGL091C, DNA repair protein genes, cultured two hours with substance
  The level of expressed mRNA in the presence of chemical substance/The level of expressed mRNA in the absence of chemical substance: 3.1
Yeast gene YGL121C, cultured two hours with substance
  The level of expressed mRNA in the presence of chemical substance/The level of expressed mRNA in the absence of chemical substance: 5.8
Yeast gene YGL136C, cultured two hours with substance
  The level of expressed mRNA in the presence of chemical substance/The level of expressed mRNA in the absence of chemical substance: 2.3
Yeast gene YGL199C, cultured two hours with substance
  The level of expressed mRNA in the presence of chemical substance/The level of expressed mRNA in the absence of chemical substance: 0.8
Yeast gene YGR043C, cultured for two hours with substance
  The level of expressed mRNA in the presence of chemical substance/The level of expressed mRNA in the absence of chemical substance: 4.1
Yeast gene YGR064W, cultured two hours with the chemical substance
  The level of expressed mRNA in the presence of chemical substance/The level of expressed mRNA in the absence of chemical substance: 2.1
Yeast gene YGR101W, cultured two hours with substance
  The level of expressed mRNA in the presence of chemical substance/The level of expressed mRNA in the absence of chemical substance: 0.9
Yeast gene YGR110W, cultured two hours with substance
  The level of expressed mRNA in the presence of chemical substance/The level of expressed mRNA in the absence of chemical substance: 2.8
Yeast gene YGR130C, cultured two hours with substance
  The level of expressed mRNA in the presence of chemical substance/The level of expressed mRNA in the absence of chemical substance: 0.9
Yeast gene YGR146C, cultured two hours with substance
  The level of expressed mRNA in the presence of chemical substance/The level of expressed mRNA in the absence of chemical substance: 1.3
Yeast gene YGR154C, cultured two hours with substance
  The level of expressed mRNA in the presence of chemical substance/The level of expressed mRNA in the absence of chemical substance: 2.2
Yeast gene YGR209C (detoxification protein gene)
  The level of expressed mRNA in the presence of chemical substance/The level of expressed mRNA in the absence of chemical substance: 5.0
Yeast gene YGR221C, cultured two hours with substance
  The level of expressed mRNA in the presence of chemical substance/The level of expressed mRNA in the absence of chemical substance: 1.4
Yeast gene YHR029C, cultured two hours with substance
  The level of expressed mRNA in the presence of chemical substance/The level of expressed mRNA in the absence of chemical substance: 3.5
Yeast gene YHR138C, cultured two hours with substance
  The level of expressed mRNA in the presence of chemical substance/The level of expressed mRNA in the absence of chemical substance: 3.4
Yeast gene YHR179W, cultured for two hours with substance
  The level of expressed mRNA in the presence of chemical substance/The level of expressed mRNA in the absence of chemical substance: 5.8
Yeast gene YHR199C, cultured two hours with substance
  The level of expressed mRNA in the presence of chemical substance/The level of expressed mRNA in the absence of chemical substance: 2.0
Yeast gene YHR209W, cultured two hours with substance
  The level of expressed mRNA in the presence of chemical substance/The level of expressed mRNA in the absence of chemical substance: 2.2
Yeast gene YIL015W
  The level of expressed mRNA in the presence of chemical substance/The level of expressed mRNA in the absence of chemical substance: 5.9
Yeast gene YIL023C, cultured two hours with substance
  The level of expressed mRNA in the presence of chemical substance/The level of expressed mRNA in the absence of chemical substance: 0.7
Yeast gene YIL024C, cultured two hours with substance
  The level of expressed mRNA in the presence of chemical substance/The level of expressed mRNA in the absence of chemical substance: 1.5
Yeast gene YIL041W, cultured two hours with substance
  The level of expressed mRNA in the presence of chemical substance/The level of expressed mRNA in the absence of chemical substance: 1.3
Yeast gene YIL057C, cultured two hours with the chemical substance
  The level of expressed mRNA in the presence of chemical substance/The level of expressed mRNA in the absence of chemical substance: 1.5
Yeast gene YIL087C, cultured two hours with substance
  The level of expressed mRNA in the presence of chemical substance/The level of expressed mRNA in the absence of chemical substance: 1.3
Yeast gene YIL117C, cultured two hours with substance
  The level of expressed mRNA in the presence of chemical substance/The level of expressed mRNA in the absence of chemical substance: 2.6
Yeast gene YJL020C, cultured two hours with substance
  The level of expressed mRNA in the presence of chemical substance/The level of expressed mRNA in the absence of chemical substance: 1.2
Yeast gene YJL036W, cultured two hours with substance
  The level of expressed mRNA in the presence of chemical substance/The level of expressed mRNA in the absence of chemical substance: 1.5
Yeast gene YJL057C, cultured two hours with substance
  The level of expressed mRNA in the presence of chemical substance/The level of expressed mRNA in the absence of chemical substance: 1.6
Yeast gene YJL066C, cultured two hours with substance
  The level of expressed mRNA in the presence of chemical substance/The level of expressed mRNA in the absence of chemical substance: 1.0
Yeast gene YJL082W, cultured two hours with substance
  The level of expressed mRNA in the presence of chemical substance/The level of expressed mRNA in the absence of chemical substance: 0.5
Yeast gene YJL108C, cultured two hours with substance
  The level of expressed mRNA in the presence of chemical substance/The level of expressed mRNA in the absence of chemical substance: 1.0
Yeast gene YJL149W, cultured two hours with substance
  The level of expressed mRNA in the presence of chemical substance/The level of expressed mRNA in the absence of chemical substance: 1.1
Yeast gene YJL151C, cultured two hours with substance
  The level of expressed mRNA in the presence of chemical substance/The level of expressed mRNA in the absence of chemical substance: 1.3
Yeast gene YJL152W, cultured two hours with substance
  The level of expressed mRNA in the presence of chemical substance/The level of expressed mRNA in the absence of chemical substance: 1.4
Yeast gene YJL161W, cultured two hours with substance
  The level of expressed mRNA in the presence of chemical substance/The level of expressed mRNA in the absence of chemical substance: 2.2
Yeast gene YJL171C, cultured two hours with substance
  The level of expressed mRNA in the presence of chemical substance/The level of expressed mRNA in the absence of chemical substance: 1.0
Yeast gene YJL186W, cultured two hours with substance
  The level of expressed mRNA in the presence of chemical substance/The level of expressed mRNA in the absence of chemical substance: 0.8
Yeast gene YJR008W, cultured two hours with substance
  The level of expressed mRNA in the presence of chemical substance/The level of expressed mRNA in the absence of chemical substance: 1.2
Yeast gene YJR048W, cultured for two hours with substance
  The level of expressed mRNA in the presence of chemical substance/The level of expressed mRNA in the absence of chemical substance: 2.5
Yeast gene YJR054W, cultured two hours with substance
  The level of expressed mRNA in the presence of chemical substance/The level of expressed mRNA in the absence of chemical substance: 1.2
Yeast gene YKL065C, cultured two hours with substance
  The level of expressed mRNA in the presence of chemical substance/The level of expressed mRNA in the absence of chemical substance: 2.1
